Experiments:
[1] = tested on: Raji human Burkitt's lymphoma cells; assay: In vivo Raji xenograft mouse model; design: species or system NSG mice; conditions: (1) 100 mg/kg orally once daily in combination with Rituximab 10 mg/kg intravenously Q3D, versus Rituximab alone
Procedure: Anti tumor effects were determined in a model for Burkitt's lymphoma. NSG mice were intravenuously injected with 1 × 10^6 Raji human Burkitt's lymphoma cells. Four days after tumor cell injection, animals were treated with compound (1) as a single agent and in combination with Rituximab (anti-CD20 antibody). Compound (1) was administered at 100 mg/kg orally, once daily. Rituximab was dosed at 10 mg/kg intravenously every third day (Q3D). Tumor progression was evaluated by monitoring animal health and body weight measurement. […] Animals treated with compound in combination with Rituximab, on average, lived 5.5 days longer than animals treated with Rituximab alone.

Pan02 cells = assay: In vivo Pan02 syngeneic mouse model; design: species or system C57BL/6 female mice
Procedure: Anti tumor effects were evaluated in the Pan02, pancreatic adenocarcinoma syngeneic mouse tumor model. For this study 3 × 10^6 Pan02 cells were injected in the right front flank of C57BL/6 female mice. Tumor size was measured and when tumors reached an average size of 80-120 mm^3, treatment was started. Treatment consisted of compound alone, or in combination with the anti PD-L1 antibody (B7-H1). Compound (1) was administered orally at 100 mg/kg once daily and anti-PD-L1 antibody was administered intraperitoneally at 10 mg/kg twice weekly. Tumor progression was monitored by tumor volume measurement using a caliper.

Compound: O=C1OC[C@H](c2ccc(-c3cnn(C(F)(F)F)c3)cc2F)N1c1ccc2[nH]cnc2c1 [Compound (1)]
- lived longer than animals treated with Rituximab alone (on average) [1]: 5.5 days
- anti tumor effect (tumor volume), combined with anti-PD-L1 antibody (Pan02 cells; (1) orally 100 mg/kg once daily plus anti-PD-L1 antibody intraperitoneally 10 mg/kg twice weekly): tumor regression
- anti tumor effect (tumor volume), compound alone (Pan02 cells; (1) orally 100 mg/kg once daily, by itself): tumor growth inhibition
